Data taken from patent US20100130598A1, “METHODS FOR INDUCING PROGRAMMED CELL DEATH” (Novogen Research Pty Ltd., priority 2008, published 2010).

Assays:
[1] = tested on: ribosomal p70 S6 kinase (p-S6k); assay: Western blot of EOC whole cell lysates for p-S6k; format: cell-based, human; conditions: EOC cells, 10 g/ml (as printed, FIG. 3 legend), 15 mins post-treatment
Excerpt: (§1) Protein preparation and cellular fractionation. After drug treatment, protein was extracted and measured as previously described (Alvero et al, 2006). For separation of the cytoplasmic and mitochondrial fractions, cell pellets were processed using the ApoAlert™ Cell Fractionation Kit (BD Biosciences, San Jose, Calif.) according to the manufacturer's instructions. For separation of the cytoplasmic and nuclear fractions, pellets were processed using NE-PER Nuclear and Cytoplasmic Extraction (Pierce Biotechnology, Inc., Rockford, Ill.).
(§2) SDS-PAGE and Western blots. Cell lysates (20 μg protein) were denatured in sample buffer (2.5% SDS, 10% glycerol, 5% β-mercapto-ethanol, 0.15 M Tris (pH=6.8) and 0.01% bromophenol blue) and subjected to 12% SDS-PAGE as previously described (Kamsteeg et al, 2003). […]

EndoG = assay: Immunohistochemistry of xenograft tumors for EndoG; format: in vivo, NCR nude mice; conditions: paraffin-embedded tumor sections; control tumors only cytoplasmic staining
Description: (§3) Mouse xenograft studies. The in vivo study as approved by the Yale University Institutional Animal Care & Use Committee. Cells (1×10^6 cells) were resuspended in 200 μ1 total volume of 50% RPMI and 50% BD Matrigel Matrix (BD Biosciences, Bedford, Mass.) and injected subcutaneously into the right flank of NCR nude mice. Intra-peritoneal therapy commenced eight days post-inoculation as follows: Paclitaxel 10 mg/kg q×3d, Carboplatin 40 mg/kg q×7d, and Compound 1 in 20% HPBCD, 100 mg/kg every day. Control groups received 20% HPBCD in PBS. Mice were treated and observed for 3 weeks. Tumor size was determined by caliper measurements and anti-tumor activity was analyzed with respect to maximal tumor inhibition (treated/control, T/C) as described previously (Kamsteeg et al, 2003).
Immunohistochemistry. Immunohistochemistry was performed as described previously (Kelly et al, 2006) using rabbit anti-EndoG (Lifespan Biosciences, Seattle, Wash.) at 1:100 dilution.

EOC tumors = assay: Mouse EOC xenograft study; format: in vivo
Description: as §3

EOC cells = assay: Flow cytometry with Hoechst and Propidium iodide staining (DNA fragmentation); format: cell-based, human; conditions: Compound 1 10 g/ml (as printed, FIG. 1B legend), 24 h
Excerpt: Cell lines and culture conditions. Established human EOC cell lines, A2780 and A2780/CP70 (gifts from Dr. T C Hamilton) (Behrens et al, 1997) were propagated in RPMI plus 10% fetal bovine serum (Gemini Bio-Products, Woodland, Calif.). Primary EOC cell lines were isolated from malignant ovarian ascites or explanted from ovarian tumors and cultured as previously described (Alvero et al, 2006). Purity of the EOC cells was 100% as determined by immuno-staining for cytokeratin 7 antigen. All cell lines were grown at 37° C. in a 5% CO2 atmosphere.
Flow cytometry with Hoechst and Propidium iodide staining. After treatment, cells were trypsinized, washed twice with PBS, and resuspended at 1×10^6 cells/ml. Cells were then stained with 5 μg/ml Hoechst 33342 (Invitrogen-Molecular Probes, Carlsbad, Calif.) and 1 μg/ml Propidium iodide (Sigma Aldrich) and incubated for 15 mins in the dark. Afterwards, data was acquired using BD LSR II System and analyzed using FloJo FACS analysis software (Tree Star, Inc., Ashland, Oreg.).

[2] = tested on: phosphorylated mTOR (p-mTOR); assay: Western blot of EOC whole cell lysates for phospho-mTOR; format: cell-based, human; conditions: EOC cells, 10 g/ml (as printed, FIG. 3 legend), 15 mins post-treatment
Excerpt: as §1, §2

[3] = tested on: Caspase 2, 3 and 9 in HPAC cells; assay: In situ caspase activity by flow cytometry, HPAC; format: cell-based, human
Description: (§4) Cells. Human pancreatic cell lines HPAC, MIAPaCa-2 and PANC-1 were obtained from the ATCC. (Manassas, Va.). The cells were maintained in DMEM media with Gln and high glucose (Mediatech, Manassas, Va.) with 10% fetal bovine serum (FBS, HyClone, Logan, Utah) and pencillin/streptomycin.
[…] The cells were incubated with caspase substrates for 1 h at 37° C., 5% CO2, then probed with Annexin-V-Cy5 and sytox blue. Caspase +ve cells were gated as shown in the histograms and these cells are indicated on the Annexin-V-Cy5/sytox blue spectra as blue cells. In situ caspase activity was assayed using fluorescent substrates. For Caspase 2, FITC-VDVAD-fmk (Biovision K182-100), for Caspase 3, FITC-DEVD-fmk (K183-100) and for Caspase 9, FITC-LEHD-fmk (K199-100) was used. These substrates bind irreversibly to their respective activated caspases, and caspase activation was quantitated by flow cytometry. After 1 hr incubation at 37° C. in 5% CO2, the cells were washed with DPBS containing 5% FBS and resuspended in Annexin-V binding buffer containing Annexin-V-Cy5 (Biovision K103-3) and sytox blue (Invitrogen), a dye that binds necrotic cells. Caspase activation, apoptosis and necrosis were measured simultaneously using a violet, blue and red laser in a BD LSRII flow cytometer.

HPAC cells = assay: Apoptosis/necrosis by FACS (Annexin-V-FITC/PI), HPAC; format: cell-based, human
Description: as §4
FACS Analysis. Apoptosis was measured by FACS analysis using Annexin-V-FITC and propidium iodide (PI) (Biovision, Mountain View, Calif.) as probes (Ahn et al., 2003). Mitochondrial membrane potential was measured by FACS analysis using JC-1 (Biovision) as a probe (Ahn et al., 2003). Cell cycle was analyzed on ethanol-fixed, RNaseA-treated cells staining with PI. In each spectrum, 10,000 gated events were recorded and analyzed with a FACSCalibur (BD Biosciences. San Jose, Calif.). All experiments were done in triplicate, error bars represent one standard deviation. Caspase inhibitor I (zVAD-fmk) was obtained from Calbiochem.

[4] = dose-escalating, 48 hr exposure

**Q.** What does the source list for `COc1ccc(C2c3ccc(O)c(C)c3OCC2c2ccc(O)cc2)cc1` (centres unmarked) [Compound 1, 3-(4-hydroxyphenyl)-4-(4-methoxyphenyl)-8-methylchroman-7-ol]?
**A.** p-S6k level [1]: down-regulated; localization of EndoG in tumors (EndoG): nuclear localization; tumor proliferation kinetics, final tumor size and volume (EOC tumors; dose-dependent, compared to carboplatin and paclitaxel): significant decrease; T/C values (maximal tumor inhibition, treated/control) (EOC tumors; intra-peritoneal, 3 weeks, Compound 1 100 mg/kg every day, Carboplatin 40 mg/kg q×7d, Paclitaxel 10 mg/kg q×3d): 30%; toxic side effects (EOC tumors; mouse, in vivo): No toxic side effects; cells staining positively for both Hoechst and PI (fragmented DNA) (EOC cells): 95%; p-mTOR level [2]: down-regulated

**Q.** How did the “caspase 2 and caspase 9 induction” value ([3]; 10 μM, after 48 hrs) turn out when `COc1ccc(C2c3ccc(O)cc3OCC2c2ccc(O)cc2)cc1` (centres unmarked) [Compound 10, 3-(4-hydroxyphenyl)-4-(4-methoxyphenyl)chroman-7-ol] was run?
**A.** neither caspase 2 or caspase 9 were induced

**Q.** What about the caspase-3 induction ([3]; 10 μM, after 48 hrs) of the same molecule?
**A.** modestly induced

**Q.** What about the “caspase 9 activation” value ([3]; 30 μM, data not shown) of the same molecule?
**A.** activated

**Q.** What about the “effect of zVAD-fmk pre-treatment on induced apoptosis” value (HPAC cells; 10 μM zVAD-fmk 1 hr before 10 μM Compound 10, 42-46 h) of the same molecule?
**A.** did not inhibit

**Q.** What about the “effect of zVAD-fmk pre-treatment on induced necrosis” value (HPAC cells; 10 μM zVAD-fmk 1 hr pre-treatment, 10 μM Compound 10 or Fas-activating antibody) of the same molecule?
**A.** inhibited

**Q.** And the apoptosis (HPAC cells; [4])?
**A.** induced apoptosis in a dose-dependent fashion

**Q.** What about the necrosis (HPAC cells; [4]) of the same molecule?
**A.** Very little necrosis
